Measurements reported in patent US20090299049A1, “Bicyclic Compounds and Their Use” (priority 2006, published 2009).

Key:
[1] = molecular target: T1, HCV RNA polymerase (Hepatitis C virus genotype 1a, UniProt P27958); experiment: In vitro RNA polymerase assay with the ATP analogue as substrate; type: biochemical
T1 construct: results with HCV and T7 RNA polymerases using 8-phenylethynyl-adenosine triphosphate as a substrate
Excerpt: (§1) In vitro assays of hepatitis C virus (HCV) and bacteriophage T7 RNA polymerases have been performed using adenosine ribonucleotide triphosphate analogues of the present invention as a substrate (in place of natural ATP). Both unincorporated and incorporated fluorescent purine ribonucleotide analogues could be visualised directly under UV trans-illumination in either agarose or polyacrylamide gels without ethidium bromide staining. The RNA products generated in the transcription assay were characterised by 6% or 20% polyacrylamide gel electrophoresis (PAGE) under denaturing (7 M urea) conditions. […] The expected full-length (˜500 bases) RNA products were not observed by denaturing 6% PAGE. Short RNA products were separated by denaturing 20% PAGE. […] The analogues are also incorporated at a slower rate than the natural substrates. Incorporation of the first and second adenosine (underlined adenosine residues in the Table below) into the RNA product occurs with two templates tested, but adjacent adenosine analogues terminate transcription before the third adenosine in each template is incorporated. Two adjacent adenosine analogues may be too large for the active site, thus RNA synthesis is terminated and the product released.

[2] = molecular target: T7 RNA polymerase (Escherichia phage T7, UniProt P00573); experiment: Gel-based in vitro transcription assay with the ATP analogue as substrate; type: biochemical, bacteriophage T7; conditions: for Length of RNA products observed: Mg^2+ co-factor, analogue in place of ATP
Chain of T7 RNA polymerase (P00573 whole entry): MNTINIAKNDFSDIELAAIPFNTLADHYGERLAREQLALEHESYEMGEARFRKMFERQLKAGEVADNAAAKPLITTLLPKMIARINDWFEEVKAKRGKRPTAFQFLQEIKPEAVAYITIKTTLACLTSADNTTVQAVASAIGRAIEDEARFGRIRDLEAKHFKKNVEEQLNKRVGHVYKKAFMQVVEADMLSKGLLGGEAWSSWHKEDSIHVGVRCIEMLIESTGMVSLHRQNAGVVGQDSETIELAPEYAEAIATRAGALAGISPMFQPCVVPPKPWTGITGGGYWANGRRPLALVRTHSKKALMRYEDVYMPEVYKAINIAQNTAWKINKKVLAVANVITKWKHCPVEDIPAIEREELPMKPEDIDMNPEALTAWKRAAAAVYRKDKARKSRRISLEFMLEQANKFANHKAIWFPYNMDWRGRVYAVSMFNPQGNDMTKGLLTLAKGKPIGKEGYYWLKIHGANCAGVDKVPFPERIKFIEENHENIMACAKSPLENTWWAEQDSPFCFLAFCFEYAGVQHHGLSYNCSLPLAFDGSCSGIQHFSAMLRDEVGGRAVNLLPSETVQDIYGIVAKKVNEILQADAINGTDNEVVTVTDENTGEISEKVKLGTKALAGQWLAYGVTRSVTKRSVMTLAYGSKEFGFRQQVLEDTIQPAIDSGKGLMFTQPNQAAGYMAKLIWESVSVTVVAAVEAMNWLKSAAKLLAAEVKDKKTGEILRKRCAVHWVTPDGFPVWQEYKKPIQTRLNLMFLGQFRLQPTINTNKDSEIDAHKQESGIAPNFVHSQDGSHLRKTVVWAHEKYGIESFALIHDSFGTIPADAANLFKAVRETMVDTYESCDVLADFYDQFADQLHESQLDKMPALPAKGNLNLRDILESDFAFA
Excerpt: as §1
RNA products formed using the HCV 3′-UTR and T7 φ13 promoter DNA templates in gel-based transcription assays of T7 RNA polymerase and 8-phenylethynyl-adenosine triphosphate: […]

[3] = Optical properties: UV-visible spectra, fluorescence excitation and emission; type: physicochemical; conditions: for Stokes shift: (1/λex − 1 λem); for λem: fluorescence emission wavelength; for λex: fluorescence excitation wavelength
Excerpt: The optical properties of several novel chromophores were investigated. UV-visible spectra reveal an intense absorption in the UV region for all the compounds evaluated.

[4] = UV absorbance and fluorescence of ribonucleoside analogues in DMSO (molar extinction coefficient, quantum yield); type: physicochemical; conditions: for Quantum yield: relative to quinine sulphate and anthracene standards
Excerpt: UV absorbance and fluorescence excitation and emission data were used to determine the molar extinction coefficient and fluorescence quantum yield of a several adenosine and guanosine ribonucleoside analogues in DMSO (see the Table below). The data acquired support the concept that the fluorescence properties of these analogues can be tuned by altering the electron-donating or electron-withdrawing R-group on the terminal phenylalkyne. Fourteen electron-donating or electron-withdrawing R-groups were coupled to purine bases at the 8-position. […] This makes the analogues extremely useful for the quantification of analogue-containing nucleic acid products in a DNA or RNA background. […] The position (ortho, meta or para) of the R-group on the phenyl ring can also be used to tune the fluorescent properties of the analogues. The ring position of the R-group has a smaller effect on the fluorescent properties of the analogues. Greater changes in the excitation/emission wavelength, molar extinction coefficient and quantum yield can be induced by changing the type of R-group (electron-donating vs. electron-withdrawing) as compared to the position of a R-group on the phenyl ring (ortho, meta or para). The quantum yields of the unphosphorylated analogues were measured relative to quinine sulphate and anthracene standards. […] This provides additional support for the idea that the purine bases can both push and pull electrons in π-conjugated systems.

[5] = Mg^2+ as co-factor, depending on DNA template

T1 sequence (P27958 2421-3011): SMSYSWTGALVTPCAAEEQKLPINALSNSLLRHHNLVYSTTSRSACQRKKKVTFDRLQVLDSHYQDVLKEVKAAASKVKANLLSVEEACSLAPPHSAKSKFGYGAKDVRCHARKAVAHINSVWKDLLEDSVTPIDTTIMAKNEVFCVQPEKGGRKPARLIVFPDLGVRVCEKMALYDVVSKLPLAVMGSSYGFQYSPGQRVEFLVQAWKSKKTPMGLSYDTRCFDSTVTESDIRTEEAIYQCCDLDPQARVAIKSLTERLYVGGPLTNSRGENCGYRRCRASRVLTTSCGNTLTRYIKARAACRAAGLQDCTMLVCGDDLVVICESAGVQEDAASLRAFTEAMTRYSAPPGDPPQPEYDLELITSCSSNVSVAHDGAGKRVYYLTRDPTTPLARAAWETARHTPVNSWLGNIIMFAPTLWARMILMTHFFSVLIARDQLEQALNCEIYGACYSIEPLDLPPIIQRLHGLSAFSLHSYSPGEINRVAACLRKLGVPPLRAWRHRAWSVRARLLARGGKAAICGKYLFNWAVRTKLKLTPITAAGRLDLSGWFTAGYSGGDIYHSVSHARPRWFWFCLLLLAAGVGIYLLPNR

With `Nc1ncnc2c1nc(C#Cc1ccccc1)n2[C@@H]1O[C@H](COP(=O)(O)OP(=O)(O)OP(=O)(O)O)[C@@H](O)[C@H]1O` [8-phenylethynyl-adenosine triphosphate] the “RNA transcripts yielded with analogue as substrate” value [1, 5] was “short RNA transcripts”, the “Expected full-length (˜500 bases) RNA products” value ([1]; denaturing 6% PAGE) was “not observed” and the “Length of RNA products observed” value ([2]; HCV 3′-UTR DNA template) was 6 mer, 9 mer. The “RNA transcripts yielded with analogue as substrate” value [2, 5] was “short RNA transcripts”, the “Length of RNA products observed” value ([2]; T7 φ13 promoter DNA template) was 4 mer, 6 mer and the “Expected full-length (˜500 bases) RNA products” value ([2]; denaturing 6% PAGE) was “not observed”. The “Length of small RNA products into which the analogue is incorporated” value ([2]; denaturing 20% PAGE) was 4-9 bases.

With `Cc1ccc(C#Cc2nc3c(N)ncnc3n2[C@@H]2O[C@H](CO)[C@@H](O)[C@H]2O)cc1` [Compound 6b, 8-(4′-Methylphenylethynyl)adenosine] the melting point was 196 to 198 °C (dec.), the Stokes shift [3] was 3126 cm⁻¹ and the λem [3] was 393 nm. The λex [3] was 350 nm, the Molar absorption coefficient [4] was 18772 M⁻¹ cm⁻¹ and the “Wavelength at fluorescence emission maximum” value [4] was 393 nm. For the same compound, the “Wavelength at maximum in UV absorption” value [4] was 323 nm and the Quantum yield [4] was 54%.

In the case of `Nc1ncnc2c1nc(C#Cc1ccc(C(F)(F)F)cc1)n2[C@@H]1O[C@H](CO)[C@@H](O)[C@H]1O` [Compound 6g, 8-(4′-Trifluoromethylphenylethynyl)adenosine], the melting point was 196 to 198 °C (dec.), the Stokes shift [3] was 4897 cm⁻¹ and the λem [3] was 440 nm. For the same compound, the λex [3] was 362 nm, the “Wavelength at fluorescence emission maximum” value [4] was 436 nm and the “Wavelength at maximum in UV absorption” value [4] was 333 nm. It also gave a Quantum yield [4] of 8.8%.

With `Nc1nc2c(nc(C#Cc3ccc(C(F)(F)F)cc3)n2[C@@H]2O[C@H](CO)[C@@H](O)[C@H]2O)c(=O)[nH]1` [Compound 5g, 8-(4′-Trifluoromethylphenylethynyl)guanosine] the melting point was greater than 240 °C, the Stokes shift [3] was 4539 cm⁻¹ and the λem [3] was 468 nm. The λex [3] was 386 nm, the “Wavelength at fluorescence emission maximum” value [4] was 458 nm and the “Wavelength at maximum in UV absorption” value [4] was 348 nm. For the same compound, the Quantum yield [4] was 0.74%.
